The values that follow are results of earlier work, collected in patent EP0668291A2, “Mammalian augmenter of liver regenerating and variants thereof” (Toyo Boseki Kabushiki Kaisha, priority 1994, dated 1995).

In this data set the test system is hepatocytes. The settings on record: earlier work.

With `N[C@@H](Cc1cc(I)c(Oc2ccc(O)c(I)c2)c(I)c1)C(=O)O` [thyroxin T3, tri-iodothyronine], the hepatotrophic effect result is “weakly hepatotrophic”.
